{
  "source": "paper PMC5218480",
  "about": "(PLoS ONE, 2017)",
  "system": "MV-4-11 cells",
  "experiment": "Gene expression microarray analysis (Affymetrix PrimeView) and GSEA",
  "format": "cell-based, human",
  "design": "RFU PODN (11730768_x_at) / Fold change /veh PODN (11730768_x_at) / RFU LINC00158 (11744669_a_at) / Fold change /veh LINC00158 (11744669_a_at) / RFU DUSP10 (11751237_a_at) / Fold change /veh DUSP10 (11751237_a_at) / RFU ID3 (11757404_x_at) / Fold change /veh ID3 (11757404_x_at) / RFU PLEKHG5 (11737974_s_at) / Fold change /veh PLEKHG5 (11737974_s_at) / RFU LRRC4B (11730491_at) / Fold change /veh LRRC4B (11730491_at) / RFU GIMAP4 (11747438_a_at) / Fold change /veh GIMAP4 (11747438_a_at) / RFU KRT8 (11758183_x_at) / Fold change /veh KRT8 (11758183_x_at) / RFU CNN1 (11734310_a_at) / Fold change /veh CNN1 (11734310_a_at) / RFU VPS37D (11726825_at) / Fold change /veh VPS37D (11726825_at) / RFU C10orf10 (11716522_x_at) / Fold change /veh C10orf10 (11716522_x_at) / RFU KIR2DL2 /// KIR2DL4 /// KIR2DL5A /// KIR2DL5B /// KIR2DS1 /// KIR2DS2 /// KIR2DS3 /// KIR2DS4 /// KIR3DL3 /// KIR3DL3 /// KIR3DS1 (11738374_at) / Fold change /veh KIR2DL2 /// KIR2DL4 /// KIR2DL5A /// KIR2DL5B /// KIR2DS1 /// KIR2DS2 /// KIR2DS3 /// KIR2DS4 /// KIR3DL3 /// KIR3DL3 /// KIR3DS1 (11738374_at) / RFU C1QL1 (11718748_at) / Fold change /veh C1QL1 (11718748_at) / RFU TMPRSS4 (11747572_a_at) / Fold change /veh TMPRSS4 (11747572_a_at) / RFU HAMP (11756126_x_at) / Fold change /veh HAMP (11756126_x_at) / RFU RNFT2 (11725882_a_at) / Fold change /veh RNFT2 (11725882_a_at) / RFU NR4A2 (11747474_a_at) / Fold change /veh NR4A2 (11747474_a_at) / RFU ABCC12 (11746883_a_at) / Fold change /veh ABCC12 (11746883_a_at) / RFU TMEM136 (11760407_x_at) / Fold change /veh TMEM136 (11760407_x_at) / RFU CLDN22 /// WWC2 (11732394_at) / Fold change /veh CLDN22 /// WWC2 (11732394_at) / RFU HLA-DPB1 (11760878_x_at) / Fold change /veh HLA-DPB1 (11760878_x_at) / RFU SPINT1 (11716480_a_at) / Fold change /veh SPINT1 (11716480_a_at) / RFU GAP43 (11754022_s_at) / Fold change /veh GAP43 (11754022_s_at) / RFU A4GNT (11735810_at) / Fold change /veh A4GNT (11735810_at) / RFU PRB3 (11715151_x_at) / Fold change /veh PRB3 (11715151_x_at) / RFU TUBB4B (11761932_at) / Fold change /veh TUBB4B (11761932_at) / RFU CAPN14 (11732068_a_at) / Fold change /veh CAPN14 (11732068_a_at) / RFU TMCC2 (11721928_a_at) / Fold change /veh TMCC2 (11721928_a_at) / RFU IRGQ (11745062_a_at) / Fold change /veh IRGQ (11745062_a_at) / RFU FAM174B (11720279_a_at) / Fold change /veh FAM174B (11720279_a_at) / RFU TMPRSS4 (11748680_a_at) / Fold change /veh TMPRSS4 (11748680_a_at) / RFU FAM212B (11763350_a_at) / Fold change /veh FAM212B (11763350_a_at) / RFU PLEKHG5 (11743358_a_at) / Fold change /veh PLEKHG5 (11743358_a_at) / RFU ZSCAN30 (11745921_a_at) / Fold change /veh ZSCAN30 (11745921_a_at) / RFU CMKLR1 (11741424_a_at) / Fold change /veh CMKLR1 (11741424_a_at) / RFU LOC101060620 /// MAPK8IP1 (11723275_at) / Fold change /veh LOC101060620 /// MAPK8IP1 (11723275_at) / RFU SPTSSB (11747773_x_at) / Fold change /veh SPTSSB (11747773_x_at) / RFU PRSS12 (11739890_at) / Fold change /veh PRSS12 (11739890_at) / RFU BIN1 (11741810_x_at) / Fold change /veh BIN1 (11741810_x_at) / RFU WNT11 (11732464_a_at) / Fold change /veh WNT11 (11732464_a_at) / RFU C10orf10 (11716521_a_at) / Fold change /veh C10orf10 (11716521_a_at) / RFU C5orf56 (11738089_at) / Fold change /veh C5orf56 (11738089_at) / RFU CYB561 (11721691_x_at) / Fold change /veh CYB561 (11721691_x_at) / RFU ANKRD19P (11752326_a_at) / Fold change /veh ANKRD19P (11752326_a_at) / RFU OR2T12 /// OR2T33 /// OR2T8 (11738714_s_at) / Fold change /veh OR2T12 /// OR2T33 /// OR2T8 (11738714_s_at) / RFU VCAN (11748164_a_at) / Fold change /veh VCAN (11748164_a_at) / RFU JSRP1 (11732532_at) / Fold change /veh JSRP1 (11732532_at) / RFU KRTAP10-11 (11738290_x_at) / Fold change /veh KRTAP10-11 (11738290_x_at) / RFU MYO3A (11730013_a_at) / Fold change /veh MYO3A (11730013_a_at) / RFU EBF3 (11725865_a_at) / Fold change /veh EBF3 (11725865_a_at) / RFU CAMK2N1 (11719241_x_at) / Fold change /veh CAMK2N1 (11719241_x_at) / RFU C5orf56 (11738088_a_at) / Fold change /veh C5orf56 (11738088_a_at) / RFU OLFML3 (11715873_a_at) / Fold change /veh OLFML3 (11715873_a_at) / RFU LOC100653217 /// NTM (11731650_a_at) / Fold change /veh LOC100653217 /// NTM (11731650_a_at) / RFU MAPK11 (11762145_a_at) / Fold change /veh MAPK11 (11762145_a_at) / RFU FIZ1 (11724087_x_at) / Fold change /veh FIZ1 (11724087_x_at) / RFU OASL (11726364_x_at) / Fold change /veh OASL (11726364_x_at) / RFU SOX15 (11748057_x_at) / Fold change /veh SOX15 (11748057_x_at) / RFU CD79A (11719716_a_at) / Fold change /veh CD79A (11719716_a_at) / RFU HIST1H1D (11736915_at) / Fold change /veh HIST1H1D (11736915_at) / RFU CASKIN2 (11723855_a_at) / Fold change /veh CASKIN2 (11723855_a_at) / RFU LOC730098 (11760151_x_at) / Fold change /veh LOC730098 (11760151_x_at) / RFU OR4N2 (11742367_at) / Fold change /veh OR4N2 (11742367_at) / RFU PRRT2 (11749266_a_at) / Fold change /veh PRRT2 (11749266_a_at) / RFU SNX32 (11753110_a_at) / Fold change /veh SNX32 (11753110_a_at) / RFU CDHR5 (11726645_a_at) / Fold change /veh CDHR5 (11726645_a_at) / RFU RCAN1 (11760418_a_at) / Fold change /veh RCAN1 (11760418_a_at) / RFU FAM167A (11723789_a_at) / Fold change /veh FAM167A (11723789_a_at) / RFU FAM26E (11764081_at) / Fold change /veh FAM26E (11764081_at) / RFU ISYNA1 (11749810_s_at) / Fold change /veh ISYNA1 (11749810_s_at) / RFU ACY1 (11761880_at) / Fold change /veh ACY1 (11761880_at) / RFU 11764098_at / Fold change /veh 11764098_at / RFU SAMD14 (11745864_x_at) / Fold change /veh SAMD14 (11745864_x_at) / RFU NPB (11741838_a_at) / Fold change /veh NPB (11741838_a_at) / RFU TMPRSS6 (11731388_a_at) / Fold change /veh TMPRSS6 (11731388_a_at) / RFU KRTAP10-2 (11738614_at) / Fold change /veh KRTAP10-2 (11738614_at) / RFU ARHGAP8 /// PRR5-ARHGAP8 (11727945_x_at) / Fold change /veh ARHGAP8 /// PRR5-ARHGAP8 (11727945_x_at) / RFU KRTAP5-7 /// NADSYN1 (11734609_at) / Fold change /veh KRTAP5-7 /// NADSYN1 (11734609_at) / RFU RASL12 (11751679_a_at) / Fold change /veh RASL12 (11751679_a_at) / RFU CDKN2B (11736163_a_at) / Fold change /veh CDKN2B (11736163_a_at) / RFU PRF1 (11729649_at) / Fold change /veh PRF1 (11729649_at) / RFU, ZNF638 /// ZNF638-IT1 / Fold change vs veh, ZNF638 /// ZNF638-IT1 / RFU, PANK3 / Fold change vs veh, PANK3 / RFU, SH3YL1 / Fold change vs veh, SH3YL1 / RFU, ZEB2 / Fold change vs veh, ZEB2 / RFU, NRIP1 / Fold change vs veh, NRIP1 / RFU, PTTG1IP / Fold change vs veh, PTTG1IP / RFU, CAPN2 / Fold change vs veh, CAPN2 / RFU, MED14 / Fold change vs veh, MED14 / RFU, SNORA58 / Fold change vs veh, SNORA58 / RFU, C1orf63 / Fold change vs veh, C1orf63 / RFU, LRRFIP1 / Fold change vs veh, LRRFIP1 / RFU, NDUFAF7 / Fold change vs veh, NDUFAF7 / RFU, SLC12A2 / Fold change vs veh, SLC12A2 / RFU, IBTK / Fold change vs veh, IBTK / RFU, ESF1 / Fold change vs veh, ESF1 / Fold change vs veh, TMEM50B / RFU, TAOK1 / Fold change vs veh, TAOK1 / RFU, ACBD3 / Fold change vs veh, ACBD3 / RFU, TMA16 / Fold change vs veh, TMA16 / RFU, RWDD3 / Fold change vs veh, RWDD3 / RFU, BCAT1 / Fold change vs veh, BCAT1 / RFU, EDEM3 / Fold change vs veh, EDEM3 / RFU, TMEM33 / Fold change vs veh, TMEM33 / RFU, WDR75 / Fold change vs veh, WDR75 / RFU, AHCTF1 / Fold change vs veh, AHCTF1 / RFU, TFRC / Fold change vs veh, TFRC / RFU, ZDHHC17 / Fold change vs veh, ZDHHC17 / RFU, NOM1 / Fold change vs veh, NOM1 / RFU, ARL8B / Fold change vs veh, ARL8B / RFU, ZBTB11 / Fold change vs veh, ZBTB11 / RFU, TAMM41 / Fold change vs veh, TAMM41 / RFU, KIAA1704 /// LOC100996395 / Fold change vs veh, KIAA1704 /// LOC100996395 / RFU, ING1 / Fold change vs veh, ING1 / RFU, TRMT61B / Fold change vs veh, TRMT61B / RFU, FUBP3 / Fold change vs veh, FUBP3 / RFU, TP53 / Fold change vs veh, TP53 / RFU, TNKS2 / Fold change vs veh, TNKS2 / RFU, ZFP14 / Fold change vs veh, ZFP14 / RFU, ACTR2 / Fold change vs veh, ACTR2 / RFU, PPP3R1 / Fold change vs veh, PPP3R1 / RFU, PIK3R1 / Fold change vs veh, PIK3R1 / RFU, HNRNPA1 / Fold change vs veh, HNRNPA1 / RFU, RNF170 / Fold change vs veh, RNF170 / RFU, ZNF28 / Fold change vs veh, ZNF28 / RFU, RNGTT / Fold change vs veh, RNGTT / RFU, OGT / Fold change vs veh, OGT / RFU, BRD1 / Fold change vs veh, BRD1 / RFU, MARS / Fold change vs veh, MARS / RFU, ZNF655 / Fold change vs veh, ZNF655 / RFU, FAHD1 / Fold change vs veh, FAHD1 / RFU, BDP1 / Fold change vs veh, BDP1 / RFU, LRRCC1 / Fold change vs veh, LRRCC1 / RFU, ARID1A / Fold change vs veh, ARID1A / RFU, ZNF146 / Fold change vs veh, ZNF146 / RFU, ZNF330 / Fold change vs veh, ZNF330 / RFU, GPN3 / Fold change vs veh, GPN3 / RFU, C9orf123 / Fold change vs veh, C9orf123 / RFU, N4BP2L2 / Fold change vs veh, N4BP2L2 / RFU, ARFIP1 / Fold change vs veh, ARFIP1 / RFU, FAM179B / Fold change vs veh, FAM179B / RFU, BCL10 / Fold change vs veh, BCL10 / RFU, UHRF1BP1L / Fold change vs veh, UHRF1BP1L / RFU, BET1 / Fold change vs veh, BET1 / RFU, CNOT2 / Fold change vs veh, CNOT2 / RFU, ZNF268 / Fold change vs veh, ZNF268 / Fold change vs veh, ZNF507 / RFU, DGCR2 / Fold change vs veh, DGCR2 / RFU, WDSUB1 / Fold change vs veh, WDSUB1 / Fold change vs veh, HSP90B1 /// MIR3652 / RFU, ADSS / Fold change vs veh, ADSS / RFU, GK / Fold change vs veh, GK / RFU, ZNF148 / Fold change vs veh, ZNF148 / RFU, TAF9 / Fold change vs veh, TAF9 / RFU, SLC1A5 / Fold change vs veh, SLC1A5 / RFU, SLMO2 / Fold change vs veh, SLMO2 / RFU, ABCC4 / Fold change vs veh, ABCC4 / RFU, LOC101060439 /// RAP1B / Fold change vs veh, LOC101060439 /// RAP1B / RFU, RFX7 / Fold change vs veh, RFX7 / RFU, GTPBP10 / Fold change vs veh, GTPBP10 / RFU, CNEP1R1 / Fold change vs veh, CNEP1R1 / RFU, BIVM-ERCC5 /// ERCC5 / Fold change vs veh, BIVM-ERCC5 /// ERCC5 / RFU, ILF3 / Fold change vs veh, ILF3 / RFU 11762660_at / Fold change /veh 11762660_at / RFU VCAN (11757783_s_at) / Fold change /veh VCAN (11757783_s_at) / RFU DDX43 (11728927_at) / Fold change /veh DDX43 (11728927_at) / RFU KRT8 (11758188_x_at) / Fold change /veh KRT8 (11758188_x_at) / RFU NKD1 (11759106_at) / Fold change /veh NKD1 (11759106_at) / RFU SRD5A1 (11742802_a_at) / Fold change /veh SRD5A1 (11742802_a_at) / RFU TPSAB1 /// TPSB2 (11721975_s_at) / Fold change /veh TPSAB1 /// TPSB2 (11721975_s_at) / RFU GSTM3 (11746129_a_at) / Fold change /veh GSTM3 (11746129_a_at) / RFU IL23R (11737362_x_at) / Fold change /veh IL23R (11737362_x_at) / RFU TMEM51 (11727254_a_at) / Fold change /veh TMEM51 (11727254_a_at) / RFU PIWIL2 (11732686_x_at) / Fold change /veh PIWIL2 (11732686_x_at) / RFU ORM1 (11744905_x_at) / Fold change /veh ORM1 (11744905_x_at) / RFU CCDC152 (11743942_at) / Fold change /veh CCDC152 (11743942_at) / RFU ECM1 (11717891_a_at) / Fold change /veh ECM1 (11717891_a_at) / RFU IL23R (11748794_a_at) / Fold change /veh IL23R (11748794_a_at) / RFU TNFAIP8L3 (11732012_x_at) / Fold change /veh TNFAIP8L3 (11732012_x_at) / RFU MBOAT4 (11741988_at) / Fold change /veh MBOAT4 (11741988_at) / RFU 11764193_at / Fold change /veh 11764193_at / RFU TMEM53 (11763286_at) / Fold change /veh TMEM53 (11763286_at) / RFU MAGEB2 (11727129_at) / Fold change /veh MAGEB2 (11727129_at) / RFU TMEM200A (11744735_a_at) / Fold change /veh TMEM200A (11744735_a_at) / RFU CCDC152 (11751479_a_at) / Fold change /veh CCDC152 (11751479_a_at) / RFU FAM211A (11726209_a_at) / Fold change /veh FAM211A (11726209_a_at) / RFU RGS16 (11746705_a_at) / Fold change /veh RGS16 (11746705_a_at) / RFU VCAN (11755009_s_at) / Fold change /veh VCAN (11755009_s_at) / RFU RHOB (11743442_s_at) / Fold change /veh RHOB (11743442_s_at) / RFU RGS16 (11720943_a_at) / Fold change /veh RGS16 (11720943_a_at) / RFU RGS16 (11720944_at) / Fold change /veh RGS16 (11720944_at) / RFU, VPS4B / Fold change vs veh, VPS4B / RFU, CREB1 / Fold change vs veh, CREB1 / RFU, DNAJC13 / Fold change vs veh, DNAJC13 / RFU, GNAQ / Fold change vs veh, GNAQ / RFU, CDK5R1 / Fold change vs veh, CDK5R1 / RFU, ZRANB3 / Fold change vs veh, ZRANB3 / RFU, CUL4A / Fold change vs veh, CUL4A / RFU, CCNY / Fold change vs veh, CCNY / RFU, UFL1 / Fold change vs veh, UFL1 / RFU, COG3 / Fold change vs veh, COG3 / RFU, DIAPH2 / Fold change vs veh, DIAPH2 / RFU, SKA2 / Fold change vs veh, SKA2 / RFU, AFF3 / Fold change vs veh, AFF3 / RFU, LMF1 / Fold change vs veh, LMF1 / RFU, IPO11 / Fold change vs veh, IPO11 / RFU, DFFB / Fold change vs veh, DFFB / RFU, FOXP1 / Fold change vs veh, FOXP1 / RFU, CARD8 / Fold change vs veh, CARD8 / RFU, STRN3 / Fold change vs veh, STRN3 / RFU, ADK / Fold change vs veh, ADK / RFU, RASSF2 / Fold change vs veh, RASSF2 / RFU, WIPF1 / Fold change vs veh, WIPF1 / RFU, LARP1B / Fold change vs veh, LARP1B / RFU, RASA1 / Fold change vs veh, RASA1 / RFU, RB1 / Fold change vs veh, RB1 / RFU, PPFIA1 / Fold change vs veh, PPFIA1 / RFU, MAT2A / Fold change vs veh, MAT2A / RFU, CCT5 / Fold change vs veh, CCT5 / RFU, WDR92 / Fold change vs veh, WDR92 / RFU, CUX1 / Fold change vs veh, CUX1 / RFU, TTC7A / Fold change vs veh, TTC7A / RFU, TMEM135 / Fold change vs veh, TMEM135 / RFU, DEPTOR / Fold change vs veh, DEPTOR / RFU, CPM / Fold change vs veh, CPM / RFU, DNAJB6 / Fold change vs veh, DNAJB6 / RFU, CACNA2D3 / Fold change vs veh, CACNA2D3 / RFU, DTX4 / Fold change vs veh, DTX4 / RFU, TFCP2 / Fold change vs veh, TFCP2 / RFU, GMCL1 /// GMCL1P1 / Fold change vs veh, GMCL1 /// GMCL1P1 / RFU, AEBP2 / Fold change vs veh, AEBP2 / RFU, SNHG1 /// SNORD22 /// SNORD25 /// SNORD26 /// SNORD27 /// SNORD28 /// SNORD29 /// SNORD31 / Fold change vs veh, SNHG1 /// SNORD22 /// SNORD25 /// SNORD26 /// SNORD27 /// SNORD28 /// SNORD29 /// SNORD31 / Fold change (Aza/veh), C12orf56 (ProbeSet 11735607_a_at) / Fold change (ACY-1035/veh), C12orf56 (ProbeSet 11735607_a_at) / Fold change (Aza/veh), FGFR1OP (ProbeSet 11751329_s_at) / Fold change (ACY-1035/veh), FGFR1OP (ProbeSet 11751329_s_at) / Fold change (Aza/veh), VPS36 (ProbeSet 11739960_a_at) / Fold change (ACY-1035/veh), VPS36 (ProbeSet 11739960_a_at) / RFU SYPL1 (11715823_x_at) / Fold change /veh SYPL1 (11715823_x_at) / RFU IGFBP7 (11715501_s_at) / Fold change /veh IGFBP7 (11715501_s_at) / RFU REEP3 (11722064_at) / Fold change /veh REEP3 (11722064_at) / RFU IGLL1 (11728026_x_at) / Fold change /veh IGLL1 (11728026_x_at): dose or concentration left out as unconfirmed",
  "conditions": "ProbeSet 11757268_x_at; LIST B",
  "data": [
    {"compound": "Nc1ncn([C@@H]2O[C@H](CO)[C@@H](O)[C@H]2O)c(=O)n1", "note": "[azacitidine]", "values": [
      {"measurement": "Fold change vs veh, HNRNPA1", "value": 0.91}
    ]}
  ]
}
